Values after ≈ are worked out from the molar mass of the structure shown.
Settings: for aqueous solubility: pH 6.8

Row | SMILES | MDR1-MDCK efflux ratio | intrinsic clearance, human liver microsomes [mL/min/kg] | intrinsic clearance, rat liver microsomes [mL/min/kg] | aqueous solubility [µg/mL] | fraction unbound, human plasma | fraction unbound, rat plasma
1 | CC1(C)Cc2cc(NC(=O)c3cnn4cccnc34)c(N3CCN(CC(F)F)CC3)nc2O1 | 7.71 | 18.6 | 121 | 76.9 (≈ 168 µM) | – | –
2 | CC(=O)N(C)[C@H]1CC2(CCN(C(=O)COc3ccc(F)cc3F)CC2)OC[C@]1(C)O | 14.9 | ≤ 4.74 | 15.4 | – | – | –
3 | COCCCNc1ncc(-c2ccsc2)c(-c2nc(C)c(C)s2)n1 | – | 23.6 | 98.1 | – | – | –
4 | COc1cc2cc(N)c(C3CCNCC3)nc2cc1OC | – | ≤ 4.74 | ≤ 10.7 | – | – | –
5 | CCCCCCCCc1ccc2c(c1)CC[C@@H](C(N)(CO)CO)C2 | – | – | – | 0.81 (≈ 2.43 µM) | – | –
6 | Cc1sc2ncn(Cc3c(F)cccc3Cl)c(=O)c2c1C | – | 80 | 757 | – | – | –
7 | COc1ccccc1C(=O)Nc1ccc2cc[nH]c2c1 | 0.247 | 84.8 | 491 | 4.9 (≈ 18.4 µM) | 0.032 | 0.0373
8 | O=C(c1cc2ccccc2[nH]1)N1C[C@@H](O)[C@H](N2CCOCC2)C1 | 0.428 | ≤ 4.74 | 17.6 | 45.6 (≈ 145 µM) | – | –
9 | O=C(CCCNC(=O)NC1CCCCC1)Nc1cc(C2CC2)n[nH]1 | – | – | – | 43.9 (≈ 132 µM) | – | –
10 | CC(C)Oc1ccc(C(=O)Nc2cccc(-c3nc4cnccc4o3)c2)cc1 | – | – | – | 0.54 (≈ 1.45 µM) | – | –
11 | O=C(CCn1nnc2ccccc2c1=O)Nc1ccncc1 | 4.06 | 9.23 | 84.8 | 21.4 (≈ 72.3 µM) | – | –
12 | Cn1ccc(CN2CCC(c3cnccn3)CC2)n1 | 0.983 | ≤ 4.74 | 26.8 | 50 (≈ 194 µM) | – | –
13 | CCOc1ccc(Oc2ccc(OCc3cc(F)ccc3F)cc2)c(N)c1 | – | 8.79 | 104 | – | – | –
14 | CCCn1cc(CN2CCC(c3nc(N(C)C)no3)CC2)cn1 | 1.14 | 21 | 146 | – | – | –
15 | C[C@@]1(c2ncncc2F)NC(=O)c2cc(-c3cn[nH]c3)ccc21 | 21.8 | ≤ 4.74 | 34.9 | 37.5 (≈ 121 µM) | – | –
16 | Cc1ccccc1N(CC(=O)O)S(C)(=O)=O | – | – | – | 44.7 (≈ 184 µM) | – | –
17 | CN(Cc1cnn(C)c1)c1ncnc2c1oc1ccccc12 | 0.969 | 19.7 | 505 | 42.5 (≈ 145 µM) | – | –
18 | Cc1noc2ncnc(N3CCCN(C(=O)C4CC4)CC3)c12 | 21.2 | 6.43 | 149 | – | – | –
19 | COc1ccc(NS(=O)(=O)c2ccc3c(c2)n(C)c(=O)n3C)cc1 | – | – | – | 2.05 (≈ 5.9 µM) | – | –
20 | CC(C)c1ccc(NC(=O)Cn2cnc3c2c(=O)n(C)c(=O)n3C)cc1 | – | 16.1 | 195 | 12.7 (≈ 35.7 µM) | – | –
21 | CCCS(=O)(=O)Nc1ccc(F)c(C(=O)c2c[nH]c3ncc(-c4ccc(Cl)cc4)cc23)c1F | 5.52 | – | – | 0.35 (≈ 0.714 µM) | 0.00025 | –
22 | CN1C(=O)[C@H]2CN(CC3=CC[C@H]4C[C@@H]3C4(C)C)C[C@H]2C1=O | 0.768 | 207 | 2390 | – | – | –
23 | Cc1ncsc1C(=O)N1C[C@@H]2CCCN(C(=O)c3scnc3C)[C@@H]2C1 | 82 | ≤ 4.74 | 11 | 75.9 (≈ 202 µM) | – | –
24 | O=C(Nc1ccn(Cc2ccccn2)n1)c1c(F)cccc1I | 2.85 | ≤ 4.74 | 132 | 61.2 (≈ 145 µM) | – | –

Continued, values first:

Row | MDR1-MDCK efflux ratio | intrinsic clearance, human liver microsomes [mL/min/kg] | intrinsic clearance, rat liver microsomes [mL/min/kg] | aqueous solubility [µg/mL] | fraction unbound, human plasma | fraction unbound, rat plasma | SMILES
25 | 531 | 96.8 | 765 | – | – | – | c1nn(C2CCOCC2)cc1Nc1ncc2nnn(-c3ccc4cn[nH]c4c3)c2n1
26 | 8.32 | 64.4 | 456 | – | – | – | Cc1cc(Nc2ncccn2)cc(C2CCCN(CC(=O)Nc3ccc(F)cc3)C2)n1 (stereo not drawn)
27 | 1.05 | ≤ 4.74 | ≤ 10.7 | 50.5 (≈ 217 µM) | – | – | CNC(=O)CCc1nc(-c2ccccn2)no1
28 | 0.721 | 82.3 | 1060 | – | – | – | COc1cccc(O[C@H]2CCN(C(=O)c3cc(-c4ccc(C)cc4)on3)CC[C@@H]2O)c1
29 | 0.775 | 13.7 | 5720 | – | – | – | CC(C)Nc1ccc(-c2cc3c(cc2CO)OCCO3)cn1
30 | 0.527 | 73 | 983 | 41.7 (≈ 140 µM) | – | – | CC(C)c1cnc(COc2ccc(Br)nc2)o1
31 | 1.18 | 68 | 507 | 26.4 (≈ 81.7 µM) | – | – | Cc1cc(C)c(-n2cccn2)c(-c2cn(C[C@@H]3CCCO3)nn2)c1
32 | – | ≤ 4.74 | 67.5 | – | – | – | Cc1cc2c(=O)n3c(nc2s1)CCNCC3
33 | – | 8.23 | 241 | 4.31 (≈ 13.7 µM) | – | – | O=C1CSc2ccc(C(=O)Nc3cc(C4CC4)n[nH]3)cc2N1
34 | 2.49 | ≤ 4.74 | 198 | – | – | – | Cc1cc(NCC2(c3ccncc3)CC2)ncn1
35 | 17.5 | ≤ 4.74 | 512 | 39.1 (≈ 107 µM) | – | – | COc1cccc(OCCCN)c1-c1cc(Nc2cnc(C#N)cn2)n[nH]1
36 | 6.41 | ≤ 4.74 | – | 13.1 (≈ 37.3 µM) | – | – | N#Cc1ccc(NS(=O)(=O)c2c[nH]c3nc(Cl)ccc23)c(F)c1
37 | – | – | – | 16.4 (≈ 43 µM) | – | – | O=C(Nc1ccc(-c2nnn[nH]2)cc1)c1cc(COc2ccc(F)cc2)on1
38 | – | 47.2 | 1150 | – | – | – | Nc1nc(N2CCN(CC3CCCC3)C(=O)C2)cc(-n2cccn2)n1
39 | – | – | – | 32.6 (≈ 117 µM) | – | – | N#CCC1(n2cc(-c3ncnc4[nH]ccc34)cn2)CNC1
40 | 0.681 | 13.3 | 505 | 47.6 (≈ 169 µM) | – | – | Cc1nc(C2(NCc3cccc(C#N)c3)CCCC2)no1
41 | 0.999 | 43.4 | 169 | 22.9 (≈ 51.8 µM) | – | – | COc1ccc2c(c1)C=C(CN1CCC(c3cc(-c4ccc(N)nc4)cc(C)n3)CC1)CO2
42 | 5.07 | 166 | 497 | 1.29 (≈ 3.32 µM) | – | – | Cc1noc(C)c1CC(=O)N1CCc2[nH]c3ccc(Br)cc3c2C1
43 | – | – | – | 24.8 (≈ 121 µM) | – | – | Cc1cc(C(=O)O)c2ccc(F)cc2n1
44 | – | ≤ 4.74 | 49.1 | 16.8 (≈ 66.1 µM) | – | – | Cc1ccc(OCc2nc3cc(N)ccc3[nH]2)cc1
